Results from US20190022225A1, “PROTOCOL FOR INCREASING LIFE EXPECTANCY IN A TEST SUBJECT” (Mayo Foundation for Medical Education and Research, priority 2015, published 2019).

Columns and labels:
[1] = tested on: IL-6 in senescent IMR90 cells; assay: IL-6 immunofluorescence and ELISA in irradiated senescent IMR90 cells treated with Nutlin-3a; type: cell-based, human
Procedure: Primary human fibroblast (IMR90) cells were induced to senesce by applying 10 Gy of irradiation. Seven days after irradiation (Day 0), cells were treated with 10 μM Nutlin-3a or vehicle (DMSO) for nine days (Day 9). The drug or vehicle was refreshed every three days. Drug/vehicle was removed at Day 9 and the cells were cultured for an additional three days (Day 12). Cells were then fixed with 4% paraformaldehyde and stained by immunofluorescence with a specific anti-IL-6 antibody (R&D, AF-206-NA). Cells were counterstained with DAPI for nuclear visualization. The percent IL-6 positive cells is illustrated in FIG. 12A. IL-6 positive cells were determined in an unbiased manner using CellProfiler software. Three different cultures were assessed. Non-senescent cells had no detectable cells IL-6 production while senescent cells were about 8% positive at day 9 after vehicle (DMSO) treatment (16 days after irradiation). […] At day 12, 3 days after Nutlin-3a was removed and 19 days after irradiation, IL-6 positive cells in the vehicle control were about 9% and Nutlin3a treated cells were less than 1% positive for IL-6.
In another experiment, IMR90 cells were induced to senesce by irradiation (10 Gy). Seven days after irradiation, cells were treated with 10 μM Nutlin-3a or vehicle (DMSO) for nine days (Day 9). The drug or vehicle was refreshed every three days. Drug/vehicle was removed at Day 9 and the cells were cultured for an additional six days. Conditioned media from the treated cells was collected, and IL-6 measurement by ELISA was performed (Perkin Elmer, AL223F). IL-6 levels in culture media were determined by ELISA using a kit according to manufacturer's instructions (AL223F, Perkin Elmer). Cells were fixed with 4% paraformaldehyde and stained by immunofluorescence with a specific anti-IL-6 antibody (R&D, AF-206-NA). The IL-6 level determined by ELISA was normalized to the number of cells in each well. The data are presented in FIG. 22C as a relative level of IL-6 in the treated cells compared to the level in non-senescent cells (NS). […]

[2] = tested on: doxorubicin-induced senescent cells in p16-3MR mice; assay: Nutlin-3a treatment of p16-3MR transgenic mice with doxorubicin-induced senescence; type: in vivo, mouse; conditions: for cells with DNA damage (γH2AX positive) in lung sections: day 35, versus doxorubicin alone
Procedure: The capability of Nutlin-3a to remove senescent cells in vivo was determined in transgenic p16-3MR mice (see, e.g., International Application Publication No. WO2013/090645). The transgenic mouse comprises a p16^Ink4a promoter operatively linked to a trimodal fusion protein for detecting senescent cells and for selective clearance of senescent cells in these transgenic mice, which is illustrated in FIG. 7. The promoter, p16^Ink4a, which is transcriptionally active in senescent cells but not in non-senescent cells (see, e.g., Wang et al., J. Biol. Chem. 276:48655-61 (2001); Baker et al., Nature 479:232-36 (2011)) was engineered into a nucleic acid construct. 3MR (tri-modality reporter) is a fusion protein containing functional domains of a synthetic Renilla luciferase (LUC), monomeric red fluorescence protein (mRFP), and truncated herpes simplex virus (HSV)-1 thymidine kinase (tTK), which allows killing by ganciclovir (GCV) (see, e.g., Ray et al., Cancer Res. 64:1323-30 (2004))). The 3MR cDNA was inserted in frame with p16 in exon 2, creating a fusion protein containing the first 62 amino acids of p16, but not a full-length wild-type p16 protein. […] The p16^Ink4a gene promoter (approximately […]) was introduced upstream of a nucleotide sequence encoding a trimodal reporter fusion protein. Alternatively, a truncated p16^Ink4a promoter may be used (see, e.g., Baker et al., Nature, supra; International Application Publication No. WO2012/177927; Wang et al., supra).). Thus, the expression of 3MR is driven by the p16^Ink4a promoter in senescent cells only. The detectable markers, LUC and mRFP permitted detection of senescent cells by bioluminescence and fluorescence, respectively. The expression of tTK permitted selective killing of senescent cells by exposure to the pro-drug ganciclovir (GCV), which is converted to a cytotoxic moiety by tTK. Transgenic founder animals, which have a C57B16 background, were established and bred using known procedures for introducing transgenes into animals (see, e.g., Baker et al., Nature 479:232-36 (2011)). Female C57/BL6 p16-3MR mice were randomized into doxorubicin+Nutlin-3a treated or doxorubicin only treated groups (see FIG. 6). Senescence was induced by intraperitoneal administration of doxorubicin at 10 mg/kg to the mice ten days prior to administration of Nutlin-3a (Day −10). Nutlin-3a (25 mg/kg) was administered intraperitoneally daily from day 10 to day 24 post-doxorubicin treatment (Group=9 mice). Control mice (doxorubicin treated) were injected with equal volumes of PBS (Group=3 mice). Luminescence imaging (Xenogen Imaging system) was performed at Day 0 (i.e., 10 days post-doxorubicin treatment) as a baseline for each mouse (100% intensity).
Luminescence imaging of the mice was performed on day 7, 14, 21, 28, and 35 following the initiation of Nutlin-3a treatment. Reduction of luminescence (L) was calculated as: L=(Imaging post-Nutlin-3a treatment)/(Baseline Imaging) %. If L is greater than or equal to 100%, the number of senescent cells was not reduced. If L is less than 100%, then the number of senescent cells was reduced. Every mouse was calculated independently, and background was subtracted from each sample.
Experiments were performed to determine the effect of Nutlin-3a treatment on expression of genes associated with senescence. Groups of female C57/BL6 p16-3MR were treated as described above. Three weeks after the end of Nutlin-3a treatment (day 35), the doxorubicin treated mice (control) (N=3) and doxorubicin+Nutlin-3a-treated mice (N=6) were sacrificed. Skin and fat biopsies were collected for RNA extraction; fat biopsies were collected for detection of senescence-associated β-galactosidase; and lungs were flash frozen in cryoprotectant OCT media for cryostat sectioning. […]

[3] = tested on: LDLR−/−/3MR double transgenic mice fed a HFD; assay: Atherosclerosis model, LDLR-/-/3MR double transgenic mice on HFD, ganciclovir weeks 12-13 and 14-15; type: in vivo, mouse; conditions: 25 mg/kg ip; versus LDLR−/−/HFD controls
Procedure: The study illustrated in FIG. 43B assessed the extent to which […] based clearance of senescent cells from LDLR^−/− /3MR double transgenic mice improves pre-existing atherogenic disease. LDLR^−/− MR double transgenic mice (10 weeks) and LDLR^−/− single transgenic mice (10 weeks) are fed a high fat diet beginning at Week 0 until Week 12. Gancyclovir is administered to both groups of mice (25 mg/kg intraperitoneally) from weeks 12-13 and weeks 14-15. At week 16, the level of plaque and the number of senescent cells in the plaques are determined.

Question: `COc1ccc(C2=N[C@@H](c3ccc(Cl)cc3)[C@@H](c3ccc(Cl)cc3)N2C(=O)N2CCNC(=O)C2)c(OC(C)C)c1` [Nutlin-3a] was tested. Which “IL-6 level (ELISA), fold lower than DMSO treated senescent cells” value ([1]; 10 μM for 9 days, then up to 6 days without drug) did it give?
Answer: Its value is 5-9 fold.

Question: What about the “percent IL-6 positive cells” value ([1]; 10 μM, day 9 (16 days after irradiation)) of the same molecule?
Answer: Its value is “below 5%”.

Question: And the “percent IL-6 positive cells” value ([1]; day 12, 3 days after drug removal)?
Answer: The value was “less than 1%”.

Question: And the “luminescence associated with doxorubicin-induced senescence” value ([2]; 25 mg/kg intraperitoneally daily, day 10 to 24 post-doxorubicin)?
Answer: The value was “reduced luminescence”.

Question: And the “luminescence, statistical significance at time points” value ([2]; day 14, day 28 and day 35 after start of treatment)?
Answer: Its value is “statistically significant decrease”.

Question: What about the “mRNA of SASP factors (mmp-3, IL-6) and senescence markers (p21, p16, p53) in skin and fat” value ([2]; day 35, relative to actin mRNA) of the same molecule?
Answer: Its value is “reduced expression”.

Question: What about the “cells with DNA damage (γH2AX positive) in lung sections” value [2] of the same molecule?
Answer: The value was “reduced the number of cells with doxorubicin-induced DNA damage”.

Question: What about the “cells with DNA damage (γH2AX positive) in lung sections” value ([2]; listed as nutlin-3A) of the same molecule?
Answer: Its value is “reduced the number of cells with DNA damage”.

Question: What about the “senescence-associated β-gal intensity in fat biopsies” value ([2]; three weeks after treatment, versus doxorubicin alone) of the same molecule?
Answer: Its value is “reduced senescence-associated (SA) β-galactosidase (β-gal) intensity”.

Question: How did the “% of the aorta covered with plaque” value [3] turn out when `Nc1nc(O)c2ncn(COC(CO)CO)c2n1` [ganciclovir] was run?
Answer: The value was “reduces the % of the aorta covered with plaque”.

Question: And the plaque cross-sectional area [3]?
Answer: The plaque cross-sectional area was “reduced the plaque cross-sectional area”.
